In brackets after ≈: the same amount, converted by molar mass. Several values for one entry are separate records, joined by “and”; a condition that tells them apart may be missing. Equal entries are not always repeated. Where two headings read alike, the source gives them in different places. Residues, ends and D or L forms follow the SMILES beside them.
What was measured:
[1] = system: P. aeruginosa FADDI-PA038; type: cell-based, Pseudomonas aeruginosa
Description: (§1) MICs were determined in cation-adjusted Mueller–Hinton broth (CaMHB) by the broth micro-dilution method against ATCC strains and clinical isolates. MICs in the presence of Survanta® were determined as described above against P. aeruginosa ATCC 27853. In the 100 μL of fresh CaMHB containing polymyxins, 10% Survanta® (v/v, 2.5 mg/mL phospholipids) was added. MICs in the presence and absence of Survanta® were compared to determine the effect of binding to lung surfactant on the antibacterial activity of polymyxins.

[2] = system: P. aeruginosa FADDI-PA025; type: cell-based, Pseudomonas aeruginosa
Description: as §1

P. aeruginosa ATCC 27853 [3] = type: cell-based, Pseudomonas aeruginosa
Description: as §1

P. aeruginosa ATCC 27853 [4] = assay: Neutropenic mouse bloodstream infection model; type: in vivo; settings: single IV dose 4 mg/kg
Description: The experimental methodology for the neutropenic mouse bloodstream infection model was described previously. Briefly, 7-week-old female Swiss mice (22–28 g) were rendered neutropenic by intraperitoneal administration of cyclophosphamide, 4 days (150 mg/kg) and 1 day (100 mg/kg) prior to inoculation. Bloodstream infection was established by intravenous administration of a 50 µL bolus of early log-phase bacterial suspension (4 × 10^8 CFU/mL). Lipopeptide solutions were prepared at 1 mg/mL (free base) in sterile saline. At 2 h after inoculation, mice (n = 3) were injected intravenously with lipopeptide solution at 4 mg/kg (free base) or saline control. At 0 and 4 h after administration, blood was collected, diluted serially in sterile saline, and plated on nutrient agar plates. Agar plates were incubated at 37 °C overnight for bacterial colony counting and the bacterial load in the blood (log10 CFU/mL) in each mouse was calculated. In vivo efficacy was calculated as the difference of the log10 CFU/mL blood values between the treated mice and the saline-treated mice at 4 h post dosing (Δlog10 CFU/mL blood = log10 [treated] CFU/mL blood − log10[control] CFU/mL blood).

A. baumannii FADDI-AB030 = type: cell-based, Acinetobacter baumannii
Description: as §1

A. baumannii FADDI-AB034 = type: cell-based, Acinetobacter baumannii
Description: as §1

A. baumannii ATCC 19606 = type: cell-based, Acinetobacter baumannii
Description: as §1

[5] = system: K. pneumoniae FADDI-KP065; type: cell-based, Klebsiella pneumoniae
Description: as §1

[6] = system: K. pneumoniae FADDI-KP032; type: cell-based, Klebsiella pneumoniae
Description: as §1

Swiss mice, kidney = assay: Nephrotoxicity in mice (kidney histopathology); type: in vivo, mouse; settings: for Kidney histopathology (SQS Score): 72 mg/kg/d subcutaneously in six divided doses every 2 h, n = 3; for Kidney histopathology, mice with the SQS score: mouse, in vivo
Description: The experimental methodology has been previously reported by our group. Briefly, individual lipopeptide solutions were prepared in sterile saline (6 mg/mL). Swiss mice (female, 7-week-old, 22–28 g) were subcutaneously administered at 12 mg/kg in, 6 doses every 2 h to reach a total dose of 72 mg/kg (n = 3). For high-dose nephrotoxicity experiments, mice were intraperitoneally administered at 20 or 25 mg/kg, in 6 doses every 2 h to reach a total dose of 120 mg/kg (n = 6) or 150 mg/kg (n = 3). At 20 h after the last dose, the right kidney from each mouse was collected and placed in 10% buffered (pH 7.4) formalin (Sigma-Aldrich, Castle Hill, NSW, Australia). The kidneys were subjected to histological examination at the Australian Phenomics Network-Histopathology and Organ Pathology (University of Melbourne, Parkville, VIC, Australia), who was blind to the treatment groups.

SMILES | MIC P. aeruginosa FADDI-PA038 ([1]; FADDI-PA038) [µg/mL] | MIC P. aeruginosa FADDI-PA025 ([2]; FADDI-PA025) [µg/mL] | MIC P. aeruginosa ATCC 27853 (P. aeruginosa ATCC 27853 [3]; ATCC 27853) [µg/mL] | MIC A. baumannii FADDI-AB030 (A. baumannii FADDI-AB030; FADDI-AB030) [µg/mL] | MIC A. baumannii FADDI-AB034 (A. baumannii FADDI-AB034; FADDI-AB034) [µg/mL] | MIC A. baumannii ATCC 19606 (A. baumannii ATCC 19606; ATCC 19606) [µg/mL] | MIC K. pneumoniae FADDI-KP065 ([5]; FADDI-KP065) [µg/mL] | MIC K. pneumoniae FADDI-KP032 ([6]; FADDI-KP032) [µg/mL] | Kidney histopathology (SQS Score) (Swiss mice, kidney) | Kidney histopathology, mice with the SQS score (Swiss mice, kidney) | further results
CCCCCCCC(=O)N[C@@H](CCN)C(=O)N[C@H](C(=O)N[C@H](CCN)C(=O)N[C@H]1CCNC(=O)[C@H]([C@@H](C)O)NC(=O)[C@H](CCN)NC(=O)[C@H](CCN)NC(=O)[C@H]([C@@H](C)O)NC(=O)[C@@H](CC(C)C)NC(=O)[C@H](CCN)NC1=O)[C@@H](C)O [Lipopeptide F085] (HELM PEPTIDE1{[CCCCCCCC(=O)[*:2]].[Dab].T.[NCC[C@@H](N[*:1])C(=O)[*:2]].[Dab].[Dab].[dL].T.[Dab].[Dab].T}$PEPTIDE1,PEPTIDE1,5:R3-11:R2$$$V2.0) | 0.5 (≈ 0.437 µM) | 8 (≈ 7 µM) | 0.5 (≈ 0.437 µM) | 0.25 (≈ 0.219 µM) | 2 (≈ 1.75 µM) | 1 (≈ 0.875 µM) | <0.125 | 0.25 (≈ 0.219 µM) | +2 (SQS + 2 = mild to moderate damage (overall score, 15 to <30)) | 2/2 | Log10 CFU/mL blood at 4 h, Mean (P. aeruginosa ATCC 27853 [4]; 4 h): 2.97 Log10 CFU/mL blood; Δlog10 CFU/mL blood (mean) (P. aeruginosa ATCC 27853 [4]; 4 h, treated minus control, mean of replicates, 4 mg/kg): −2.16 log10 CFU/mL blood; Log10 CFU/mL blood at 4 h, single mouse (P. aeruginosa ATCC 27853 [4]; 4 h, 4 mg/kg): 3.39 Log10 CFU/mL blood and 3.30 Log10 CFU/mL blood and 2.20 Log10 CFU/mL blood; Delta Log10 CFU/mL blood at 4 h, single mouse (P. aeruginosa ATCC 27853 [4]; treated mouse minus mean of vehicle mice, 4 mg/kg): -1.73 Log10 CFU/mL blood and -1.83 Log10 CFU/mL blood and -2.92 Log10 CFU/mL blood
CCCCCCCC(=O)N[C@@H](CCN)C(=O)N[C@H](C(=O)N[C@H](CO)C(=O)N[C@H]1CCNC(=O)[C@H]([C@@H](C)O)NC(=O)[C@H](CCN)NC(=O)[C@H](CCN)NC(=O)[C@H]([C@@H](C)O)NC(=O)[C@@H](CC(C)C)NC(=O)[C@H](CCN)NC1=O)[C@@H](C)O [Lipopeptide F183] (HELM PEPTIDE1{[CCCCCCCC(=O)[*:2]].[Dab].T.[dS].[Dab].[Dab].[dL].T.[Dab].[Dab].T}$PEPTIDE1,PEPTIDE1,5:R3-11:R2$$$V2.0) | 4 (≈ 3.54 µM) | >32 | 4 (≈ 3.54 µM) | <0.125 | 0.25 (≈ 0.221 µM) | 1 (≈ 0.885 µM) | 0.25 (≈ 0.221 µM) | <0.125 | 0 (SQS 0 = no significant change (overall score, <1)) | 3/3 | MIC, No Survanta (P. aeruginosa ATCC 27853 [3]; ATCC 27853): 4 µg/mL (≈ 3.54 µM)
CCCCCCCC(=O)N[C@@H](CCN)C(=O)N[C@H](C(=O)N[C@@H](CCN)C(=O)N[C@H]1CCNC(=O)[C@H]([C@@H](C)O)NC(=O)[C@H](CCN)NC(=O)[C@H](CCN)NC(=O)[C@H]([C@@H](C)O)NC(=O)[C@@H](C(C)C)NC(=O)[C@H](CCN)NC1=O)[C@@H](C)O [Lipopeptide F229] (HELM PEPTIDE1{[CCCCCCCC(=O)[*:2]].[Dab].T.[Dab].[Dab].[Dab].[dV].T.[Dab].[Dab].T}$PEPTIDE1,PEPTIDE1,5:R3-11:R2$$$V2.0) | >32 | >32 | >32 | 32 (≈ 28.3 µM) | >32 | >32 | 2 (≈ 1.77 µM) | 1 (≈ 0.885 µM) | 0 (SQS 0 = no significant change (overall score, <1)) | 3/3 | 
CCCCCCCC(=O)N[C@@H](CCN)C(=O)N[C@H](C(=O)N[C@@H](CCN)C(=O)N[C@H]1CCNC(=O)[C@H]([C@@H](C)O)NC(=O)[C@H](CCN)NC(=O)[C@H](CCN)NC(=O)[C@H]([C@@H](C)O)NC(=O)[C@@H]([C@H](C)O)NC(=O)[C@H](CCN)NC1=O)[C@@H](C)O [Lipopeptide F230] (HELM PEPTIDE1{[CCCCCCCC(=O)[*:2]].[Dab].T.[Dab].[Dab].[Dab].[dT].T.[Dab].[Dab].T}$PEPTIDE1,PEPTIDE1,5:R3-11:R2$$$V2.0) | >32 | >32 | >32 | >32 | >32 | >32 | 32 (≈ 28.3 µM) | 16 (≈ 14.1 µM) | 0 (SQS 0 = no significant change (overall score, <1)) | 3/3 | 
CC[C@@H]1NC(=O)[C@@H](CC(C)C)NC(=O)[C@H](CCN)NC(=O)[C@@H](NC(=O)[C@H](CN)NC(=O)[C@@H](NC(=O)[C@H](CCN)NC(=O)c2ccccc2Cl)[C@@H](C)O)CCNC(=O)[C@H]([C@@H](C)O)NC(=O)[C@H](CCN)NC(=O)[C@H](CCN)NC1=O [Lipopeptide F350] (HELM PEPTIDE1{[O=C(c1ccccc1Cl)[*:2]].[Dab].T.[NC[C@H](N[*:1])C(=O)[*:2]].[Dab].[Dab].[dL].[Abu].[Dab].[Dab].T}$PEPTIDE1,PEPTIDE1,5:R3-11:R2$$$V2.0; bridges inferred) |  |  |  |  |  |  |  |  |  |  | MIC P. aeruginosa FADDI-PA038 ([1]; carbapenem-resistant isolate): 2 µg/mL (≈ 1.78 µM); MIC P. aeruginosa FADDI-PA025 ([2]; MDR clinical isolate): 4 µg/mL (≈ 3.55 µM); MIC P. aeruginosa ATCC 27853 (P. aeruginosa ATCC 27853 [3]): 0.5 µg/mL (≈ 0.444 µM); MIC, 10% Survanta (P. aeruginosa ATCC 27853 [3]; P. aeruginosa ATCC 27853, 10% Survanta): 0.5 µg/mL (≈ 0.444 µM); MIC, No Survanta (P. aeruginosa ATCC 27853 [3]; P. aeruginosa ATCC 27853, no surfactant): 0.5 µg/mL (≈ 0.444 µM); MIC A. baumannii FADDI-AB030 (A. baumannii FADDI-AB030; carbapenem-resistant isolate): 4 µg/mL (≈ 3.55 µM); MIC A. baumannii FADDI-AB034 (A. baumannii FADDI-AB034; carbapenem-resistant isolate): 4 µg/mL (≈ 3.55 µM); MIC A. baumannii ATCC 19606 (A. baumannii ATCC 19606): 8 µg/mL (≈ 7.11 µM); MIC K. pneumoniae FADDI-KP065 ([5]; carbapenem-resistant isolate): 0.5 µg/mL (≈ 0.444 µM); MIC K. pneumoniae FADDI-KP032 ([6]; carbapenem-resistant isolate): 1 µg/mL (≈ 0.888 µM)

Reference: publication PMC8956739, “A synthetic lipopeptide targeting top-priority multidrug-resistant Gram-negative pathogens” (Nature Communications, 2022)
